According to ChEMBL document CHEMBL1156449, “The nucleoside analog sangivamycin induces apoptotic cell death in breast carcinoma MCF7/adriamycin-resistant cells via protein kinase Cdelta and JNK activation” (J Biol Chem, 2007):
The source made the active and inactive calls. No cut-off for these calls is given here.

Experiments:
[1] = Cell cycle arrest in human multidrug resistant MCF/ADR cells assessed as accumulation at G2/M phase at 0.3 uM after 48 hrs by propidium fluorescence flow cytometry; format: functional, cell-based
MCF/WT [2] = assay: Induction of apoptosis in human drug-sensitive MCF/WT cells assessed as activation of caspase 7 at 0.3 uM by immunoblot analysis; format: functional, cell-based
MCF/ADR [3] = assay: Increase in Bcl-x/l levels in human multidrug resistant MCF/ADR cells at 0.3 uM by immunoblot analysis; format: functional, cell-based
[4] = Inhibition of PKA
MCF/ADR [5] = assay: Induction of apoptosis in human multidrug resistant MCF/ADR cells assessed as accumulation of PARP at 0.3 uM after 48 hrs by immunoblot analysis; format: functional, cell-based
[6] = Cell cycle arrest in human multidrug resistant MCF/ADR cells assessed as accumulation at G0/G1 phase at 0.3 uM after 24 hrs by propidium fluorescence flow cytometry; format: functional, cell-based
MCF/WT [7] = assay: Induction of apoptosis in human drug-sensitive MCF/WT cells assessed as activation of caspase 6 at 0.3 uM by immunoblot analysis; format: functional, cell-based
MCF/ADR [8] = assay: Cytocidal effect in human multidrug resistant MCF/ADR cells assessed as decrease in number of viable cells at 0.1 uM after 72 hrs by MTT colorimetric assay; format: functional, cell-based
[9] = Effect on cell morphology in human multidrug resistant MCF/ADR cells assessed as floating cells with intact plasma membrane at 0.3 uM after 72 hrs by trypan blue dye exclusion test; format: functional
MCF/WT [10] = assay: Increase in Bcl-2 levels in human drug-sensitive MCF/WT cells at 0.3 uM by immunoblot analysis; format: functional, cell-based
MCF/ADR [11] = assay: Decrease in p53 accumulation in human multidrug resistant MCF/ADR cells at 0.3 uM after 72 hrs by immunoblot analysis; format: functional, cell-based
MCF/ADR [12] = assay: Blockade of apoptosis induction in human multidrug resistant MCF/ADR cells at 0.3 uM after 48 hrs in presence of rottlerin; format: functional, cell-based
MCF/ADR [13] = assay: Increase in p21CIP accumulation in human multidrug resistant MCF/ADR cells at 0.3 uM after 48 hrs by immunoblot analysis; format: functional, cell-based
MCF/ADR [14] = assay: Inhibition of induction of apoptosis in human multidrug resistant MCF/ADR cells assessed as inhibition of cleavage of lamin A at 0.3 uM after 48 hrs by immunoblot analysis in presence of pan-specific inhibitor; format: functional, cell-based
MCF/WT [15] = assay: Induction of JNK p46 isoform phosphorylation in human drug-sensitive MCF/WT cells at 0.3 uM after 48 hrs by immunoblot analysis; format: cell-based
MCF/ADR [16] = assay: Induction of apoptosis in human multidrug resistant MCF/ADR cells assessed as accumulation of PARP at 0.3 uM after 72 hrs by immunoblot analysis; format: functional, cell-based
MCF/WT [17] = assay: Induction of apoptosis in human drug sensitive MCF/WT cells assessed as propidium iodide binding to phosphatidylserine at 0.3 uM after 6 hrs; format: functional, cell-based
[18] = Cell cycle arrest in human drug-sensitive MCF/WT cells assessed as accumulation at S phase at 0.3 uM after 72 hrs by propidium fluorescence flow cytometry; format: functional, cell-based
MCF/WT [19] = assay: Induction of apoptosis in human drug-sensitive MCF/WT cells assessed as cleavage of lamin A at 0.3 uM by immunoblot analysis; format: functional, cell-based
[20] = target: Transcription factor Jun (Homo sapiens) (UniProt P05412); assay: Reduction in induction of phosphorylated form of c-Jun in SP600125 pretreated human multidrug resistant MCF/ADR cells at 0.3 uM after 48 hrs by immunoblot analysis; format: cell-based
MCF/ADR [21] = assay: Induction of JNK p54 isoform phosphorylation in human multidrug resistant MCF/ADR cells at 0.3 uM after 48 hrs by immunoblot analysis; format: cell-based
[22] = target: T1, c-Jun N-terminal kinase, JNK (Homo sapiens) (UniProt P45983+P53779+P45984); assay: Induction of JNK phosphorylation in human multidrug resistant MCF/ADR cells transfected with PKCdelta siRNA at 0.3 uM after 48 hrs by immunocytochemical analysis; format: cell-based
[23] = target: Transcription factor Jun (Homo sapiens) (UniProt P05412); assay: Reduction in induction of c-Jun expression in human multidrug resistant MCF/ADR cells at 0.3 uM after 48 hrs by immunoblot analysis in presence of pan-specific caspase inhibitor; format: cell-based
MCF/ADR [24] = assay: Inhibition of induction of apoptosis in human multidrug resistant MCF/ADR cells assessed as inhibition of cleavage of PARP at 0.3 uM after 48 hrs by immunoblot analysis in presence of pan-specific inhibitor; format: functional, cell-based
MCF/ADR [25] = assay: Increase in Bcl-2 levels in human multidrug resistant MCF/ADR cells at 0.3 uM by immunoblot analysis; format: functional, cell-based
[26] = Inhibition of PKC
[27] = target: Transcription factor Jun (Homo sapiens) (UniProt P05412); assay: Reduction in induction of c-Jun expression in human multidrug resistant MCF/ADR cells at 0.3 uM after 48 hrs by immunoblot analysis in presence of caspase 9 inhibitor; format: cell-based
[28] = target: T1, c-Jun N-terminal kinase, JNK (Homo sapiens); assay: Effect on mitochondrial localization of phosphorylated JNK with Bcl-x/l in human multidrug resistant MCF/ADR cells assessed as enhanced JNK activity by Mitotracker red staining; format: cell-based
[29] = Cell cycle arrest in human drug-sensitive MCF/WT cells assessed as accumulation at G0/G1 phase at 0.3 uM after 24 hrs by propidium fluorescence flow cytometry; format: functional, cell-based
[30] = Cell cycle arrest in human multidrug resistant MCF/ADR cells assessed as accumulation at G0/G1 phase at 0.3 uM after 48 hrs by propidium fluorescence flow cytometry; format: functional, cell-based
[31] = Cell cycle arrest in human drug-sensitive MCF/WT cells assessed as accumulation at G2/M phase at 0.3 uM after 48 hrs by propidium fluorescence flow cytometry; format: functional, cell-based
[32] = target: Bcl-2-like protein 1 (Homo sapiens) (UniProt Q07817); assay: Inhibition of induction of Bcl-x/s phosphorylation in human multidrug resistant MCF/ADR cells at 0.3 uM after 48 hrs in presence of rottlerin; format: functional, cell-based
MCF/ADR [33] = assay: Induction of apoptosis in human multidrug resistant MCF/ADR cells assessed as annexin V binding to phosphatidylserine at 0.3 uM after 6 hrs; format: functional, cell-based
[34] = target: Transcription factor Jun (Homo sapiens) (UniProt P05412); assay: Induction of c-Jun phosphorylation in human drug-sensitive MCF/WT cells at 0.3 uM; format: cell-based
MCF/ADR [35] = assay: Inhibition of induction of apoptosis in human multidrug resistant MCF/ADR cells assessed as inhibition of cleavage of lamin A at 0.3 uM after 48 hrs by immunoblot analysis in presence of caspase 9-specific inhibitor; format: functional, cell-based
MCF/ADR [36] = assay: Induction of apoptosis in human multidrug resistant MCF/ADR cells assessed as activation of caspase 7 at 0.3 uM by immunoblot analysis; format: functional, cell-based
[37] = Cell cycle arrest in human multidrug resistant MCF/ADR cells assessed as accumulation at sub G0/G1 phase at 0.3 uM after 72 hrs by propidium fluorescence flow cytometry; format: functional, cell-based
[38] = Cell cycle arrest in human multidrug resistant MCF/ADR cells assessed as accumulation at S phase at 0.3 uM after 48 hrs by propidium fluorescence flow cytometry; format: functional, cell-based

Transcription factor Jun (Homo sapiens), sequence (P05412 whole entry, canonical isoform): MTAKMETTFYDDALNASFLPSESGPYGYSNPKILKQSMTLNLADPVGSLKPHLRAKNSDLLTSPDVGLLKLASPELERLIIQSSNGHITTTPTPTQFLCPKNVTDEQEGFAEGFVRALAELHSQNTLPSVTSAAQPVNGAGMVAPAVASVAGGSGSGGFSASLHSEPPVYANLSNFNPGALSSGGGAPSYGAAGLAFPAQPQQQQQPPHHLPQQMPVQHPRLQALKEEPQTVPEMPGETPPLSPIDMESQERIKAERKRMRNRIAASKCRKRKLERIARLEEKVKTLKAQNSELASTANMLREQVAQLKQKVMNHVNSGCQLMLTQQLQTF
Bcl-2-like protein 1 (Homo sapiens), sequence (Q07817 whole entry): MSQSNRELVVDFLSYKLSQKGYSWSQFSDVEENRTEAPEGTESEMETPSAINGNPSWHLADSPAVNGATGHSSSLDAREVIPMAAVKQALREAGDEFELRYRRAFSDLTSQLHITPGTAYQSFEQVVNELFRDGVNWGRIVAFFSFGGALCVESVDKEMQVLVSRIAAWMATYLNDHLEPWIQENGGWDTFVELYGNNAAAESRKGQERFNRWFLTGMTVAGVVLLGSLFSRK

## NC(=O)c1cn([C@@H]2O[C@H](CO)[C@@H](O)[C@H]2O)c2ncnc(N)c12 [SANGIVAMYCIN]
[1]
  Activity: 17%
MCF/WT [2]
  Activity: inactive
MCF/ADR [3]
  Activity: Active
[4]
  IC50: 50 µM
MCF/ADR [5]
  Activity: Active
[6]
  Activity: 33%
MCF/WT [7]
  Activity: inactive
MCF/ADR [8]
  Activity: Active
[9]
  Activity: 95%
MCF/WT [10]
  Activity: Active
MCF/ADR [11]
  Activity: Active
MCF/ADR [12]
  Activity: Active
MCF/ADR [13]
  Activity: inactive
MCF/ADR [14]
  Activity: Active
MCF/WT [15]
  Activity: inactive
MCF/ADR [16]
  Activity: Active
MCF/WT [17]
  Activity: inactive
[18]
  Activity: 11%
MCF/WT [19]
  Activity: inactive
[20]
  Activity: Active
MCF/ADR [21]
  Activity: Active
[22]
  Activity: inactive
[23]
  Activity: inactive
MCF/ADR [24]
  Activity: Active
MCF/ADR [25]
  Activity: inactive
[26]
  Ki: 10 µM
[27]
  Activity: inactive
[28]
  Activity: Active
[29]
  Activity: 48%
[30]
  Activity: 20%
[31]
  Activity: 27%
[32]
  Activity: Active
MCF/ADR [33]
  Activity: Active
[34]
  Activity: inactive
MCF/ADR [35]
  Activity: Active
MCF/ADR [36]
  Activity: Active
[37]
  Activity: 50%
[38]
  Activity: 23%
